One assay concerns Rattus norvegicus. Briefly: Antiulcer activity in rat assessed as inhibition of pepsin activity at 100 mg/kg. It is filed as functional.
The subject of assay [1] is SMMC-7721. Briefly: Cytotoxicity against human SMMC7721 cells assessed as growth inhibition at 0.1 uM. It is filed as functional.
A further assay concerns Escherichia coli. Briefly: Antimicrobial activity against Escherichia coli. It is filed as functional.
The next assay deals with Pseudomonas fluorescens. The assay is described as follows: Antimicrobial activity against Pseudomonas fluorescens. It is filed as functional.
Assay [2] in a line: Cytotoxicity against human HL60 cells. The format is functional, cell-based. Particulars: HL-60.
For another assay, the target named is Androgen receptor (Homo sapiens, UniProt P10275). The assay is described as follows: Binding affinity to androgen receptor (unknown origin).
The nature of assay [3]: Cytotoxicity against human PC3 cells. Particulars: PC-3. The format is functional, cell-based.
Assay [4] in a line: Cytotoxicity against human Hey-1B cells. The format is functional, cell-based.
For the next assay, the system named is Leishmania infantum. Briefly: Antimicrobial activity against Leishmania infantum. The format is functional, organism-based.
In the next assay the test system is Leishmania braziliensis. Briefly: Antimicrobial activity against Leishmania braziliensis. The format is functional, organism-based.
Assay [5] relates to SMMC-7721. Briefly: Cytotoxicity against human SMMC7721 cells assessed as growth inhibition at 0.1 uM after 72 hrs. Conditions: SMMC-7721, 72 h. It is filed as functional.
A further assay concerns Bacillus subtilis. Briefly: Antimicrobial activity against Bacillus subtilis. The format is functional.
The test system of assay [6] is Staphylococcus aureus. Briefly: Antimicrobial activity against Staphylococcus aureus. It is filed as functional.
Assay [7] deals with Botryosphaeria berengeriana. Briefly: Antimicrobial activity against Physalospora pyricola assessed as inhibition of microbial growth at 50 ug/ml. The format is functional.
For assay [8], the system named is Staphylococcus aureus. Briefly: Antimicrobial activity against methicillin-resistant Staphylococcus aureus. It is filed as functional.
A further assay concerns Enterococcus. Briefly: Antimicrobial activity against Vancomycin-resistant Enterococcus. It is filed as functional.
A short description of assay [9]: Cytotoxicity against human SKMES1 cells. It is filed as functional, cell-based. Particulars: SK-MES-1.
Another assay concerns A549. Briefly: Cytotoxicity against human A549 cells. The format is functional, cell-based.
A short description of assay [10]: Cytotoxicity against human AZ-521 cells. It is filed as functional, cell-based.
A short description of assay [11]: Cytotoxicity against human SKBR3 cells. Particulars: SK-BR-3. The format is functional, cell-based.
The subject of the next assay is Fusarium graminearum. Briefly: Antimicrobial activity against Fusarium graminearum assessed as inhibition of microbial growth at 50 ug/ml. It is filed as functional.

In brackets after ≈: the same amount, converted by molar mass.

In general, inhibition refers to the change of the read-out against control, counted positive when it falls. As a reminder, the MIC is the least concentration at which growth counts as inhibited. High values mean a need for much substance, low ones inhibition by little substance. As usually defined, the IC50 is the midpoint of a concentration-inhibition curve.

Androgen receptor, sequence (P10275 whole entry): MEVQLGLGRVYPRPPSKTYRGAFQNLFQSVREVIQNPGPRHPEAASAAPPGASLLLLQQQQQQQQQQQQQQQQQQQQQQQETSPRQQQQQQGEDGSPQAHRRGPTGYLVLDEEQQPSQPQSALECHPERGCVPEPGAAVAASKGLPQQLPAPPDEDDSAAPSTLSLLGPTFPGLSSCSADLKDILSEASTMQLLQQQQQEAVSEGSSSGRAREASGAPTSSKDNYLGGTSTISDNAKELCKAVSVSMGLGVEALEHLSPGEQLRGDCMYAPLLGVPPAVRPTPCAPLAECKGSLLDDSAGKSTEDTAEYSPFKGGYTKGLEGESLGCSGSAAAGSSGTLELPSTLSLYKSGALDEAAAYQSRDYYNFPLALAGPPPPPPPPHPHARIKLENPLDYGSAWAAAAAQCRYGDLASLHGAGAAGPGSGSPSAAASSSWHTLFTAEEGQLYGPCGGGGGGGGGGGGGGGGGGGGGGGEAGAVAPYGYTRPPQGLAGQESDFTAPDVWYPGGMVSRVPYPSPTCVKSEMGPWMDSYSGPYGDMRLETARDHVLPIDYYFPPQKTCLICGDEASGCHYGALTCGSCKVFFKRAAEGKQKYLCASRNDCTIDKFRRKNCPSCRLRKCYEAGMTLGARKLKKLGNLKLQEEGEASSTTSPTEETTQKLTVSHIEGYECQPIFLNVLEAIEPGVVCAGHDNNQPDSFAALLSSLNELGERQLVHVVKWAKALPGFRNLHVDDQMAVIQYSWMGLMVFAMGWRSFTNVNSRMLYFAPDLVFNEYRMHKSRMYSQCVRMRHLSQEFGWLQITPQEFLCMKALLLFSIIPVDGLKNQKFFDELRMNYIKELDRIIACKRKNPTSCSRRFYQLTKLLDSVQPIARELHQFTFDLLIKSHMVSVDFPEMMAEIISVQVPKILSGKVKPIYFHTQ

As to `CC(C)c1cc2c(cc1S(=O)(=O)[O-])[C@@]1(C)CCC[C@@](C)(C(=O)[O-])[C@@H]1CC2.[Na+].[Na+]`, the “inhibition (INH)” value in the assay with Rattus norvegicus is recorded as 92%.

For `CC(C)c1ccc2c(c1)CC[C@H]1[C@](C)(CNC(c3ccc(C(F)(F)F)cc3)P(=O)(Oc3ccccc3)Oc3ccccc3)CCC[C@]21C` (stereo partly specified), in the assay with SMMC-7721 [1], the inhibition at 0.1 µM came to 79%.

For the molecule `CC(C)c1ccc2c(c1)CC[C@H]1[C@](C)(C(=O)N/N=C/c3cc(Cl)ccc3O)CCC[C@]21C`, the MIC against Escherichia coli and against Pseudomonas fluorescens was 3.9 µg/mL (≈ 8.61 µM) each time.

In turn, `COC(=O)[C@@H](NC(=O)[C@]1(C)CCC[C@]2(C)c3ccc(C(C)C)cc3CC[C@@H]12)C(C)C` registered an IC50 in assay [2] of 2.3 µM.

In the case of `CC(C)c1ccc2c(c1)C(=O)C[C@H]1[C@](C)(CNC(=O)c3ccccc3)CCC[C@]21C`, the IC50 at Androgen receptor came to 83.8 µM; in [3], 5.7 µg/mL (≈ 14.1 µM); in assay [4], 11.3 µg/mL (≈ 28 µM).

For the molecule `COC(=O)[C@@]1(C)CCC[C@]2(C)c3cc(O)c(C(C)C)cc3CC[C@@H]12`, the IC50 in the assay with Leishmania infantum and in the assay with Leishmania braziliensis was 14 µM in each case.

As for `CCOP(=O)(OCC)C(NC[C@]1(C)CCC[C@]2(C)c3ccc(C(C)C)cc3CC[C@@H]12)c1ccc([N+](=O)[O-])cc1O` (stereo partly specified), the inhibition at 0.1 µM in the assay on SMMC-7721 [5] was determined as 99%.

With `CC(C)c1cc2c(cc1[N+](=O)[O-])[C@@]1(C)CCC[C@@](C)(CNC(=O)c3ccccc3)[C@@H]1CC2`, the half-inhibitory concentration (IC50) in assay [3] came to 5.7 µg/mL (≈ 13.1 µM); in [4], 11.3 µg/mL (≈ 26 µM).

Turning to `COC(=O)[C@H](C)NC(=O)[C@]1(C)CCC[C@]2(C)c3ccc(C(C)C)cc3CC[C@@H]12`, half-maximal inhibition in assay [2] (IC50) was put at 2.3 µM.

On to `CC(C)c1ccc2c(c1)CC[C@H]1[C@](C)(C(=O)N/N=C/c3ccc([N+](=O)[O-])o3)CCC[C@]21C`, for which the MIC was 3.9 µg/mL (≈ 8.91 µM) against Escherichia coli, 3.9 µg/mL (≈ 8.91 µM) in the assay on Pseudomonas fluorescens, 1.9 µg/mL (≈ 4.34 µM) with Bacillus subtilis and 1.9 µg/mL (≈ 4.34 µM) in the assay with Staphylococcus aureus [6].

Turning to `COc1ccc(/C=c2\sc3nnc([C@]4(C)CCC[C@]5(C)c6ccc(C(C)C)cc6CC[C@@H]45)n3c2=O)cc1`, the inhibition at 50 µg/mL in assay [7] is 56.8%.

Consider `CC(C)c1cc2c(cc1O)[C@@]1(C)CCC[C@](C)(CO)[C@@H]1CC2`, for which the IC50 in the assay on Leishmania infantum and in the assay on Leishmania braziliensis was 14 µM in each case.

With `COC(=O)[C@H](Cc1ccccc1)NC(=O)[C@]1(C)CCC[C@]2(C)c3ccc(C(C)C)cc3CC[C@@H]12`, the 50% inhibitory concentration (IC50) in assay [2] was determined as 2.3 µM.

Turning to `CC(C)c1cc2c(cc1O)[C@@]1(C)CCCC(C)(C)[C@@H]1[C@H](O)C2`, the MIC with Staphylococcus aureus [8] and in the assay on Enterococcus was 4 µg/mL (≈ 13.2 µM) in each case.

Molecule `COc1cc([C@@H]2c3cc4c(cc3[C@@H](O[C@@H]3O[C@@H]5CO[C@@H](C)O[C@H]5[C@H](O)[C@H]3O)[C@H]3COC(=O)[C@H]23)OCO4)cc(OC)c1O` [ETOPOSIDE] came in with an IC50 in assay [9] of 1.83 µM.

Take `CC(C)c1cc2c(c(O)c1O)[C@@]1(C)CCCC(C)(C)[C@@H]1CC2=O` [DEMETHYLCRYPTOJAPONOL]: the MIC with Staphylococcus aureus [8] and against Enterococcus was 4 µg/mL (≈ 12.6 µM) each time.

With `CC(C)c1cc2c(cc1O)[C@@]1(C)CCCC(C)(C)[C@@H]1C(=O)C2`, the MIC against Staphylococcus aureus [8] and in the assay on Enterococcus was 4 µg/mL (≈ 13.3 µM) throughout.

For the molecule `COC(=O)[C@@]1(C)CCC[C@]2(C)c3cc(O)c(C(C)(C)O)cc3CC[C@@H]12`, the 50% inhibitory concentration (IC50) in the assay on Leishmania infantum and in the assay on Leishmania braziliensis was 14 µM each time.

For the molecule `CC(C)c1ccc2c(c1)CC[C@H]1[C@](C)(CNC(c3ccc(F)cc3)P(=O)(Oc3ccccc3)Oc3ccccc3)CCC[C@]21C` (stereo partly specified), the inhibition at 0.1 µM in the assay with SMMC-7721 [1] amounted to 75%.

`COC(=O)[C@H](Cc1ccc(O)cc1)NC(=O)[C@]1(C)CCC[C@]2(C)c3ccc(C(C)C)cc3CC[C@@H]12`: the IC50 with A549 was 7.1 µM; in [2] it was 2.3 µM; in assay [10], 3.9 µM; in assay [11] it was 8.1 µM.

As for `CC(C)c1ccc2c(c1)CC[C@H]1[C@](C)(c3nnc4s/c(=C\c5ccc(O)cc5)c(=O)n34)CCC[C@]21C`, the inhibition at 50 µg/mL with Fusarium graminearum came to 70.9%.

Take `NCC[C@H](O)C(=O)N[C@@H]1C[C@H](N)[C@@H](O[C@H]2O[C@H](CN)[C@@H](O)[C@H](O)[C@H]2O)[C@H](O)[C@H]1O[C@H]1O[C@H](CO)[C@@H](O)[C@H](N)[C@H]1O` [AMIKACIN]: the MIC in the assay with Bacillus subtilis and in the assay on Staphylococcus aureus [6] was 0.9 µg/mL (≈ 1.54 µM) in each case.

In the case of `CC(C)c1cc2c(cc1[N+](=O)[O-])[C@@]1(C)CCC[C@@](C)(CNC(=O)c3ccc([N+](=O)[O-])cc3)[C@@H]1CC2`, the IC50 stood at 5.7 µg/mL (≈ 11.9 µM) in assay [3] and 11.3 µg/mL (≈ 23.6 µM) in assay [4].

The record behind these values is ChEMBL document CHEMBL3351221, “Synthetic derivatives of aromatic abietane diterpenoids and their biological activities” (Eur J Med Chem, 2014).
